Test results as given in patent US20260327264A1, “PEPTIDE INHIBITORS OF INTERLEUKIN-23 RECEPTOR” (Zealand Pharma A/S, priority 2023, published 2026).
Read-outs that look alike come from different tables or passages of the source. *1 amine or outer side, *2 acyl side, *3 side chain or, on linkers, in order; H or OH if unused. Where a SMILES comes first, the peptide text is derived from it. Bridges are numbered along the chain shown (N, C = ends). [ ]: non-standard residue; d: D form. 2Nal = N[C@@H](Cc1ccc2ccccc2c1)C(=O)O; AEF = NCCOc1ccc(C[C@H](N)C(=O)O)cc1; X1 = O=C(Cc1ccc(CN[*:1])cc1)[*:2]; 3Pal = N[C@@H](Cc1cccnc1)C(=O)O; αMeL = CC(C)C[C@](C)(N)C(=O)O; CH2COCH2 = O=C(C[*:1])C[*:2]; 3Amb = NCc1cccc(C(=O)O)c1; Dab = NCC[C@H](N)C(=O)O

Columns and labels:
human IL-23R = target: T1, human IL-23R (Homo sapiens, UniProt Q5VWK5); test: Binding assay: displacement of fluorophore (TAMRA)-labelled reference compound from human IL-23R (BRET, Nluc-IL23R fusion protein membranes); conditions: for Emax: read-out: % displacement (hIL-23R binding)
T1 construct: Nanoluc luciferase (Nluc); secretion signal encoded by the plasmid (not specified); expressed in transfected cells; crude membranes used in the assay
T1 sequence (Q5VWK5 22-629): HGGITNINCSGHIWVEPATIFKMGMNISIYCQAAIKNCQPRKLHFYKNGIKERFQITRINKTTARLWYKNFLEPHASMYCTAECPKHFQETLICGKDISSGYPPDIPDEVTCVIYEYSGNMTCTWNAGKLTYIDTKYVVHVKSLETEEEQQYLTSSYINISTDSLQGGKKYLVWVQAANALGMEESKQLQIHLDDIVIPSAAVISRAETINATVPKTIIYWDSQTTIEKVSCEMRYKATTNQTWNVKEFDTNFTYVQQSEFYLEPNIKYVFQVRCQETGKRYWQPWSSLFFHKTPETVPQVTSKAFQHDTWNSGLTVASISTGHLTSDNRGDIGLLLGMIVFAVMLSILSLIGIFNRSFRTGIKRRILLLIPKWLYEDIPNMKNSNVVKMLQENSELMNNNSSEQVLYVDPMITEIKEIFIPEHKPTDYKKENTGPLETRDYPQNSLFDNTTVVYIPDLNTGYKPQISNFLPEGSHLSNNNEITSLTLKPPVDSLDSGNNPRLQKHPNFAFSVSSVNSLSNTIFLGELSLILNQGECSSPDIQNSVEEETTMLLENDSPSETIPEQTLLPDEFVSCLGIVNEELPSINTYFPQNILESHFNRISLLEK

[1] = test system: IL-23 mediated STAT3 signalling (DB cells); test: Functional inhibition of IL-23 mediated STAT3 signalling (phospho-STAT3 Tyr705) in DB cells; assay type: cell-based, human; conditions: for hIL-23 (pSTAT3) antagonist % inhibition: Table 3-2, maximal inhibitory response, EC80 of hIL-23
How it was run: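 DB cells preincubated 15 min with inhibitor at 37° C, 5% CO2, then stimulated 90 min with hIL-23 at EC80. Lysate phospho-STAT3 measured by MSD electrochemiluminescence. Signal normalized to IL-23-alone and buffer wells; IC50 and maximal inhibition from concentration–response curves.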

[2] = Peptide stability in simulated gastric fluid (SGF); assay type: in vitro ADME; conditions: pig, 4 h, pH 1.2, pepsin, 37° C.
Procedure: SGF and SIF were prepared based on the United States Pharmacopeia specifications (Test Solutions, United States Pharmacopeia 35, NF 30, 2012). SGF was prepared by dissolving sodium chloride (0.2 g) in 50 mL of water. A volume of 0.7 mL of 10 M HCl was added to adjust the pH of the solution to 1.2 and the volume made up to 100 mL with water. 64 mg porcine pepsin (P7125, Sigma Aldrich) was gently dissolved into 20 mL preheated (37° C.) solution (3.2 g/L) immediately prior to the incubation. SIF was prepared by dissolving monobasic potassium phosphate (0.68 g) in 50 mL of water and adjusting the pH to 6.8 with 1 M NaOH. The volume was subsequently made up to 100 mL with water. 200 mg porcine pancreatin (P1625, Sigma Aldrich) was gently dissolved into 20 mL preheated (37° C.) solution (10 g/L) immediately prior to the incubation.
To initiate the incubations, 20 μL of peptide stock solution in 50% v/v isopropanol was deposited at the bottom of a well plate and 580 μL matrix solution was added to give a final substrate concentration of 10 μM. The incubation was performed at 37° C. with gentle shaking. 70 μL aliquots were removed at 0, 1 and 4 hours and quenched into 210 μL ice-cold precipitant solution (95% v/v acetonitrile with 0.1% v/v formic acid). After the last timepoint, the sampling plate was mixed for 10 min on a shaking table and centrifuged 10 min at 2200 g. 70 μL resulting supernatant was diluted with 150 μL water, mixed and centrifugated before analysis by liquid chromatography high resolution mass spectrometry. The zero sample was reinjected after the 4-hour sample to confirm that no drift in instrument sensitivity had occurred during the run. Percent remaining at each timepoint was calculated relative to timepoint zero based on absolute peak areas.
Compounds with a SGF stability (after 4 h) above 70% are considered highly SGF stable. Compounds with a SGF stability (after 4 h) between 30-70% (including 30% and 70%) are considered moderately SGF stable. Compounds with a SGF stability (after 4 h) below 30% are considered SGF unstable. SGF stability values above 100% are due to assay uncertainty and indicate the compound has not degraded.

[3] = EC80 of hIL-23, read-out: IC50 (pSTAT3)
[4] = Table 3-2, EC80 of hIL-23, read-out: hIL-23 (pSTAT3) antagonist IC50

SMILES	Emax (human IL-23R) [%]	IC50 [1, 3] [nM]	IC50 [1, 4] [nM]	hIL-23 (pSTAT3) antagonist % inhibition [1] [%]	remaining at 4 h, 10 µM [2] [%]	IC50 (human IL-23R) [nM]
CC(C)C[C@]1(C)NC(=O)[C@H](Cc2ccc3ccccc3c2)NC(=O)[C@H](Cc2ccc(OCCN)cc2)NC(=O)[C@@H]2CCNC(=O)CC[C@H](NC(=O)[C@H](CO)NC(=O)Cc3ccc(cc3)CNC(=O)CC[C@@H](C(=O)N[C@@H](CCN)C(=O)N[C@@](C)(Cc3cccnc3)C(N)=O)NC1=O)C(=O)N[C@@H](Cc1c[nH]c3ccccc13)C(=O)N[C@@H](CCC(N)=O)C(=O)N2 [Compound 3, [4-Aminomethyl-phenylacetyl](1c)*SE(2c)WQ[Dab](2c)[Y(2-aminoethoxy)][2-Nal][2-Me-Leu]E(1c)[Dab][2-Me-3-(3-Pyridyl)-Ala]-[NH2]]	99	1.7	1.7	98	104	
CNC(=O)[C@H](Cc1cccnc1)NC(=O)[C@H](COC)NC(=O)[C@@H]1CCC(=O)NCc2ccc(cc2)CC(=O)N[C@@H](CO)C(=O)N[C@H]2CCC(=O)NCC[C@H](NC(=O)[C@H](CCC(N)=O)NC(=O)[C@H](Cc3c[nH]c4ccccc34)NC2=O)C(=O)N[C@@H](Cc2ccc(OCCN)cc2)C(=O)N[C@@H](Cc2ccc3ccccc3c2)C(=O)N[C@@](C)(CC(C)C)C(=O)N1 [Compound 37, [4-Aminomethyl-phenylacetyl](1c)*SE(2c)WQ[Dab](2c)[Y(2-aminoethoxy)][2-Nal][2-Me-Leu]E(1c)[Ser(OMe)][3-(3-Pyridyl)-Ala]-[NHMe]]	95		0.069	100	102	
CC(C)C[C@]1(C)NC(=O)[C@H](Cc2ccc3ccccc3c2)NC(=O)[C@H](Cc2ccc(OCCN)cc2)NC(=O)[C@@H]2CCNC(=O)CC[C@H](NC(=O)[C@H](CO)NC(=O)Cc3ccc(cc3)CNC(=O)CC[C@@H](C(=O)N[C@@H](CCN)C(=O)N(C)[C@@H](Cc3cccnc3)C(N)=O)NC1=O)C(=O)N[C@@H](Cc1c[nH]c3ccccc13)C(=O)N[C@@H](CCC(N)=O)C(=O)N2 [Compound 4, [4-Aminomethyl-phenylacetyl](1c)*SE(2c)WQ[Dab](2c)[Y(2-aminoethoxy)][2-Nal][2-Me-Leu]E(1c)[Dab][N—Me-3-(3-Pyridyl)-Ala]-[NH2]]	111	6.5	6.5	100	103	0.17
CNC(=O)[C@H](Cc1cccnc1)NC(=O)[C@H](CCN)NC(=O)[C@@H]1CCC(=O)NCc2ccc(cc2)CC(=O)N[C@@H](C)C(=O)N[C@H]2CCC(=O)NCC[C@H](NC(=O)[C@H](CCC(N)=O)NC(=O)[C@H](Cc3c[nH]c4ccccc34)NC2=O)C(=O)N[C@@H](CCc2ccccc2)C(=O)N[C@@H](Cc2ccc3ccccc3c2)C(=O)NC(C)(C)C(=O)N1 [Compound 41, [4-Aminomethyl-phenylacetyl](1c)*AE(2c)WQ[Dab](2c)[hPhe][2-Nal][Aib]E(1c)[Dab][3-(3-Pyridyl)-Ala]-[NHMe]]	104				102	
CC(C)C[C@]1(C)NC(=O)[C@H](Cc2ccc3ccccc3c2)NC(=O)[C@H](Cc2ccc(OCCN)cc2)NC(=O)[C@@H]2CSCC(=O)CSC[C@H](NC(=O)[C@H](CO)NC(=O)Cc3ccc(cc3)CNC(=O)CC[C@@H](C(=O)N[C@@H](CCN)C(N)=O)NC1=O)C(=O)N[C@@H](Cc1c[nH]c3ccccc13)C(=O)N[C@@H](CCC(N)=O)C(=O)N2 [Ref 82, [4-Aminomethyl-phenylacetyl](1c)*SC(2a)WQC(2a)[Y(2-aminoethoxy)][2-Nal][2-Me-Leu]E(1c)[Dab]-[NH2], reference compound] ([X1]SCWQC[AEF][2Nal][αMeL]E[Dab]-NH2; linker 3-6 via CH2COCH2; lactam N-10)	103		11	97		
CC(C)C[C@]1(C)NC(=O)[C@H](Cc2c[nH]c3ccccc23)NC(=O)[C@H](Cc2c[nH]c3ccccc23)NC(=O)[C@@H]2CSCC(=O)CSC[C@H](NC(=O)[C@H]([C@@H](C)O)NC(=O)[C@@H](NC(=O)CN)CSCC(=O)CSC[C@@H](C(=O)N[C@@H](CO)C(N)=O)NC1=O)C(=O)N[C@@H](Cc1c[nH]c3ccccc13)C(=O)N[C@@H](CCC(=O)O)C(=O)N2 (single isomer, unassigned) [I5 (isomer 3), H-GC(1a)TC(2a)WEC(2a)WW[2-Me-Leu]C(1a)S-[NH2], reference compound]	102			91		
CNC(=O)[C@H](Cc1cccnc1)NC(=O)[C@H](CCN)NC(=O)[C@@H]1CCC(=O)NCc2ccc(cc2)CC(=O)N[C@@H](CO)C(=O)N[C@H]2CCC(=O)NCC[C@H](NC(=O)[C@H](Cc3ccccc3)NC(=O)[C@H](Cc3c[nH]c4ccccc34)NC2=O)C(=O)N[C@@H](Cc2ccc(OCCN)cc2)C(=O)N[C@@H](Cc2ccc3ccccc3c2)C(=O)N[C@@](C)(CC(C)C)C(=O)N1 [Compound 23, [4-Aminomethyl-phenylacetyl](1c)*SE(2c)WF[Dab](2c)[Y(2-aminoethoxy)][2-Nal][2-Me-Leu]E(1c)[Dab][3-(3-Pyridyl)-Ala]-[NHMe]] ([X1]SEWF[Dab][AEF][2Nal][αMeL]E[Dab][3Pal]-NHMe; lactam 3-6, N-10)	97		5.2	99		0.12
CC(=O)N[C@H]1CCCCNC(=O)CC[C@@H](C(=O)N[C@@H](CCN)C(=O)N[C@@H](Cc2cccnc2)C(N)=O)NC(=O)[C@](C)(CC(C)C)NC(=O)[C@H](Cc2ccc3ccccc3c2)NC(=O)[C@H](Cc2ccc(OCCN)cc2)NC(=O)[C@@H]2CSCC(=O)CSC[C@H](NC(=O)[C@H]([C@@H](C)O)NC1=O)C(=O)N[C@@H](Cc1c[nH]c3ccccc13)C(=O)N[C@@H](CCC(N)=O)C(=O)N2 [Ref 155, [Ac]-K(1c)TC(2a)WQC(2a)[Y(2-aminoethoxy)][2-Nal][2-Me-Leu]E(1c)[Dab][3-(3-Pyridyl)-Ala]-[NH2], reference compound] (Ac-KTCWQC[AEF][2Nal][αMeL]E[Dab][3Pal]-NH2; lactam 1-10; linker 3-6 via CH2COCH2)	97			100		
CC(C)C[C@@H]1NC(=O)[C@H](Cc2ccc3ccccc3c2)NC(=O)[C@H](Cc2c[nH]c3ccccc23)NC(=O)[C@@H]2CSCC(=O)CSC[C@H](NC(=O)[C@H](CO)NC(=O)c3cccc(c3)CNC(=O)CC[C@@H](C(=O)N[C@@H](CCCNC(=N)N)C(N)=O)NC1=O)C(=O)N[C@@H](Cc1c[nH]c3ccccc13)C(=O)N[C@@H](CCC(N)=O)C(=O)N2 [Ref 37, [(3-Aminomethyl)benzoyl](1c)*SC(2a)WQC(2a)W[2-Nal]LE(1c)R-[NH2], reference compound] ([3Amb]SCWQCW[2Nal]LER-NH2; linker 3-6 via CH2COCH2; lactam N-10)	103		45	89		
